In one assay the target is BRD9 bromodomain (Homo sapiens (Human), UniProt Q9H8M2). The experiment in a line: BRD9 bromodomain TR-FRET competition binding assay. The settings on record: 3 nM Flag-BRD9, 3.75 nM biotinylated ligand, 90 minutes at room temperature. Here is the method: Cleaved His tag was removed by purification.
A mixture of biotinylated-ligand and SureLight™ Allophycocyanin-Streptavidin (APC-SA, PerkinElmer AD0201) in 50 mM HEPES (pH 7.4), 50 mM NaCl, 1 mM TCEP (pH 7), 0.01% (v/v) Tween-20, 0.01% (w/v) bovine serum albumin was added to a white 384-well PerkinElmer Proxiplate Plus plate. DMSO or 3-fold serially diluted compounds were then added to the Proxiplate followed by addition of Flag-BRD9. After a 10 minute incubation at room temperature, Eu-W1024 anti-FLAG (PerkinElmer, AD0273) was added.
(Time-resolved FRET reads energy transfer from a long-lived donor to a nearby acceptor.)
For the molecule `COc1cc(-c2cn(C)c(=O)c3cnccc23)cc(OC)c1CN(C)CC(=O)NCCCCCCCCCC(=O)N[C@H](C(=O)N1C[C@H](O)C[C@H]1C(=O)NCc1ccc(-c2scnc2C)cc1)C(C)(C)C` (stereo in doubt) [Compound D18, (2S,4R)-1-[(2S)-2-[10-[2-([[2,6-dimethoxy-4-(2-methyl-1-oxo-2,7-naphthyridin-4-yl)phenyl]methyl](methyl)amino)acetamido]decanamido]-3,3-dimethylbutanoyl]-4-hydroxy-N-[[4-(4-methyl-1,3-thiazol-5-yl)phenyl]methyl]pyrrolidine-2-carboxamide], the IC50 (commonly the midpoint of a concentration-inhibition curve) is less than 10 nM.

In the case of `CNCc1c(OC)cc(-c2cn(C)c(=O)c3cnccc23)cc1OC` [Compound B53, 4-[3,5-dimethoxy-4-[(methylamino)methyl]phenyl]-2-methyl-1,2-dihydro-2,7-naphthyridin-1-one], the concentration for half-maximal inhibition (IC50) was in the range of 10 to 100 nM. The same measure, in the same setting: the figure for `COc1cc(-c2cn(C)c(=O)c3cnccc23)cc(SC)c1CN(C)C` [Compound B54, 4-[4-[(dimethylamino)methyl]-3-methoxy-5-(methylsulfanyl)phenyl]-2-methyl-1,2-dihydro-2,7-naphthyridin-1-one] is less than 10 nM; for `CNC(=O)[C@@H]1CCN1Cc1c(OC)cc(-c2cn(C)c(=O)c3cnccc23)cc1OC` [Compound B56, (2S)-1-[[2,6-dimethoxy-4-(2-methyl-1-oxo-2,7-naphthyridin-4-yl)phenyl]methyl]-N-methylazetidine-2-carboxamide] it is 10 to 100 nM. On the same count and under the same terms, under `COc1cc(-c2cc(NC(=O)N(C)C)c3nnc(C)n3c2)cc(OC)c1CN(C)C` [Compound B57, 1-(6-[4-[(dimethylamino)methyl]-3,5-dimethoxyphenyl]-3-methyl-[1,2,4]triazolo[4,3-a]pyridin-8-yl)-3,3-dimethylurea] stands more than 1000 nM; under `COc1cc(-c2cc(NC(=O)N(C)C)c3nncn3c2)cc(OC)c1CN(C)C` [Compound B58, 1-(6-[4-[(dimethylamino)methyl]-3,5-dimethoxyphenyl]-[1,2,4]triazolo[4,3-a]pyridin-8-yl)-3,3-dimethylurea], more than 1000 nM. As for `CNC(=O)c1ccc2c(-c3cc(OC)c(CN(C)C)c(OC)c3)cn(C)c(=O)c2c1` [Compound B59, 4-[4-[(dimethylamino)methyl]-3,5-dimethoxyphenyl]-N,2-dimethyl-1-oxoisoquinoline-7-carboxamide], the half-maximal inhibitory concentration (IC50) was 10 to 100 nM.

The molecule `COc1cc(-c2cc(NC(C)=O)c3nnc(C)n3c2)cc(OC)c1CN(C)C` [Compound B60, N-(6-[4-[(dimethylamino)methyl]-3,5-dimethoxyphenyl]-3-methyl-[1,2,4]triazolo[4,3-a]pyridin-8-yl)acetamide] came in with an IC50 of 10 to 100 nM. On the same count and under the same terms, under `COc1cc(-c2nn(C)c(=O)c3cnccc23)cc(OC)c1CN(C)C` [Compound B62, 1-(4-((dimethylamino)methyl)-3,5-dimethoxyphenyl)-3-methylpyrido[3,4-d]pyridazin-4(3H)-one 2,2,2-trifluoroacetate] stands 10 to 100 nM. The molecule `CNC(=O)c1ccc2c(=O)n(C)cc(-c3cc(OC)c(CN(C)C)c(OC)c3)c2c1` [Compound B63, 4-(4-((dimethylamino)methyl)-3,5-dimethoxyphenyl)-N,2-dimethyl-1-oxo-12-dihydroisoquinoline-6-carboxamide] came in with an IC50 of 10 to 100 nM.

Molecule `COc1cc(-c2cn(C)c(=O)c3cc(-c4nc5ccncc5[nH]4)ccc23)cc(OC)c1CN(C)C` [Compound B64, 4-[4-[(dimethylamino)methyl]-3,5-dimethoxyphenyl]-7-[1H-imidazo[4,5-c]pyridin-2-yl]-2-methylisoquinolin-1-one] yielded an IC50 of 10 to 100 nM. On the same count and under the same terms, the figure for `COc1cc(-c2cn(C)c(=O)c3ccc(-c4nc5cnccc5[nH]4)cc23)cc(OC)c1CN(C)C` [Compound B65, 4-(4-((dimethylamino)methyl)-3,5-dimethoxyphenyl)-6-(1H-imidazo[4,5-c]pyridin-2-yl)-2-methylisoquinolin-1(2H)-one] is 10 to 100 nM; for `COc1c(CN(C)C)ccc(-c2cn(C)c(=O)c3cnccc23)c1F` [Compound B66, 4-(4-((dimethylamino)methyl)-2-fluoro-3-methoxyphenyl)-2-methyl-2,7-naphthyridin-1(2H)-one] it is 100 to 1000 nM; for `COc1cc(-c2cn(C)c(=O)c3cnccc23)cc(F)c1CN(C)C` [Compound B67, 4-(4-((dimethylamino)methyl)-3-fluoro-5-methoxyphenyl)-2-methyl-2,7-naphthyridin-1(2H)-one] it is 10 to 100 nM.

For the molecule `COc1cc(/C=C/c2c(C)noc2C)cc(OC)c1CN(C)C` [Compound B68], the IC50 is more than 1000 nM. The molecule `COc1cc(-c2cn(C)c(=O)c3cnccc23)cc(OC)c1CN(C)CCN(C)CCOCCOc1cccc2c1C(=O)N(C1CCC(=O)NC1=O)C2=O` (stereo not drawn) [Compound D1, 4-[2-(2-[[2-([[2,6-dimethoxy-4-(2-methyl-1-oxo-2,7-naphthyridin-4-yl)phenyl]methyl](methyl)amino)ethyl](methyl)amino]ethoxy)ethoxy]-2-(2,6-dioxopiperidin-3-yl)isoindole-1,3-dione; formic acid] registered an IC50 of 10 to 100 nM. As to `COc1cc(-c2cn(C)c(=O)c3cnccc23)cc(OC)c1CN(C)CC(=O)NCCCCCCCCNc1cccc2c1C(=O)N(C1CCC(=O)NC1=O)C2=O` (stereo not drawn) [Compound D2, 2-([[2,6-dimethoxy-4-(2-methyl-1-oxo-1,2-dihydro-2,7-naphthyridin-4-yl)phenyl]methyl](methyl)amino)-N-(8-[[2-(2,6-dioxopiperidin-3-yl)-1,3-dioxo-2,3-dihydro-1H-isoindol-4-yl]amino]octyl)acetamide formic acid], the half-maximal inhibitory concentration (IC50) lay in the range of 10 to 100 nM. Still for that read-out and setting: the figure for `COc1cc(-c2cn(C)c(=O)c3cnccc23)cc(OC)c1CN(C)CC(=O)NCCCCCNc1cccc2c1C(=O)N(C1CCC(=O)NC1=O)C2=O` (stereo not drawn) [Compound D3, 2-([[2,6-dimethoxy-4-(2-methyl-1-oxo-1,2-dihydro-2,7-naphthyridin-4-yl)phenyl]methyl](methyl)amino)-N-(5-[[2-(2,6-dioxopiperidin-3-yl)-1,3-dioxo-2,3-dihydro-1H-isoindol-4-yl]amino]pentyl)acetamide formic acid] is 10 to 100 nM.

The target of a further assay is Nanoluciferase-BRD9 fusion protein (3×FLAG-NLuc-BRD9) (Homo sapiens (Human), UniProt Q9H8M2). The experiment in a line: SYO1 BRD9 NanoLuc degradation assay. Format: cell-based. The settings on record: SYO-1 cells expressing 3×FLAG-NLuc-BRD9, 6 hours, 1 μM top dose; read-out: SYO1 BRD9-NanoLuc degradation IC50. As to the method: A stable SYO-1 cell line expressing 3×FLAG-NLuc-BRD9 was generated. On day 0 cells were seeded in 30 μL media into each well of 384-well cell culture plates. The seeding density was 8000 cells/well. […] Subsequently plates were incubated for 6 hours in a standard tissue culture incubator and equilibrated at room temperature for 15 minutes. Nanoluciferase activity was measured by adding 15 μL of freshly prepared Nano-Glo Luciferase Assay Reagent (Promega N1130), shaking the plates for 10 minutes and reading the bioluminescence using an EnVision reader.
The Inhibition % was calculated using the following formula: % Inhibition=100×(LumHC−LumSample)/(LumHC−LumLC). DMSO treated cells are employed as High Control (HC) and 1 μM of a known BRD9 degrader standard treated cells are employed as Low Control (LC).
Take `COc1cc(-c2cn(C)c(=O)c3cnccc23)cc(OC)c1CN(C)CC(=O)NCCCCCCCCCC(=O)N[C@H](C(=O)N1C[C@H](O)C[C@H]1C(=O)NCc1ccc(-c2scnc2C)cc1)C(C)(C)C` (stereo in doubt) [Compound D18, (2S,4R)-1-[(2S)-2-[10-[2-([[2,6-dimethoxy-4-(2-methyl-1-oxo-2,7-naphthyridin-4-yl)phenyl]methyl](methyl)amino)acetamido]decanamido]-3,3-dimethylbutanoyl]-4-hydroxy-N-[[4-(4-methyl-1,3-thiazol-5-yl)phenyl]methyl]pyrrolidine-2-carboxamide]: the DC50 was less than 10 nM. On the same count and under the same terms, under `COc1cc(-c2cn(C)c(=O)c3cnccc23)cc(OC)c1CN(C)CCN(C)CCOCCOc1cccc2c1C(=O)N(C1CCC(=O)NC1=O)C2=O` (stereo not drawn) [Compound D1, 4-[2-(2-[[2-([[2,6-dimethoxy-4-(2-methyl-1-oxo-2,7-naphthyridin-4-yl)phenyl]methyl](methyl)amino)ethyl](methyl)amino]ethoxy)ethoxy]-2-(2,6-dioxopiperidin-3-yl)isoindole-1,3-dione; formic acid] stands 100 to 1000 nM. With `COc1cc(-c2cn(C)c(=O)c3cnccc23)cc(OC)c1CN(C)CC(=O)NCCCCCCCCNc1cccc2c1C(=O)N(C1CCC(=O)NC1=O)C2=O` (stereo not drawn) [Compound D2, 2-([[2,6-dimethoxy-4-(2-methyl-1-oxo-1,2-dihydro-2,7-naphthyridin-4-yl)phenyl]methyl](methyl)amino)-N-(8-[[2-(2,6-dioxopiperidin-3-yl)-1,3-dioxo-2,3-dihydro-1H-isoindol-4-yl]amino]octyl)acetamide formic acid], the DC50 is less than 10 nM. `COc1cc(-c2cn(C)c(=O)c3cnccc23)cc(OC)c1CN(C)CC(=O)NCCCCCNc1cccc2c1C(=O)N(C1CCC(=O)NC1=O)C2=O` (stereo not drawn) [Compound D3, 2-([[2,6-dimethoxy-4-(2-methyl-1-oxo-1,2-dihydro-2,7-naphthyridin-4-yl)phenyl]methyl](methyl)amino)-N-(5-[[2-(2,6-dioxopiperidin-3-yl)-1,3-dioxo-2,3-dihydro-1H-isoindol-4-yl]amino]pentyl)acetamide formic acid]: the DC50 was in the range of 10 to 100 nM.

In the case of `COc1cc(-c2cn(C)c(=O)c3cnccc23)cc(OC)c1CN(C)C(=O)CCCCCOc1cccc2c1C(=O)N(C1CCC(=O)NC1=O)C2=O` (stereo not drawn) [Compound D4, N-[[2,6-dimethoxy-4-(2-methyl-1-oxo-1,2-dihydro-2,7-naphthyridin-4-yl)phenyl]methyl]-6-[[2-(2,6-dioxopiperidin-3-yl)-1,3-dioxo-2,3-dihydro-1H-isoindol-4-yl]oxy]-N-methylhexanamide], the DC50 was less than 10 nM.

On to `COc1cc(-c2cn(C)c(=O)c3cnccc23)cc(OC)c1CN(C)CCc1cccc2c1C(=O)N(C1CCC(=O)NC1=O)C2=O` (stereo not drawn) [Compound D17, 4-[2-([[2,6-dimethoxy-4-(2-methyl-1-oxo-2,7-naphthyridin-4-yl)phenyl]methyl](methyl)amino)ethyl]-2-(2,6-dioxopiperidin-3-yl)isoindole-1,3-dione], for which the DC50 is more than 1000 nM.
